Laboratory results published in patent publication US4873225A, “1-n-(4-amino-3-fluoro-2-hydroxybutyryl)-kanamycins” (Zaidan Hojin Biseibutsu Kagaku Kenkyu Kai, priority 1987, dated 1989).
≈ marks a conversion by molar mass, not a printed value. Like-named read-outs stand apart in the source and are kept apart here.

Key:
Assay in all cases: MIC, standard serial dilution method
Assay type in all cases: cell-based
Escherichia coli JR 225 = settings: JR225, pH 7
Experimental: (§1) Antibacterial activities of each of the abovementioned compounds of the general formula (I) according to this invention were determined by measuring their minimum growth inhibitory concentrations (MIC, mcg/ml) against various bacteria in accordance with a standard serial dilution method. The pH condition of the incubation medium where the MIC data were measured was set at pH 7, unless otherwise specifically indicated. For the sake of comparison, the antibacterial spectra of 1-N-{(S)-4-amino-2-hydroxybutyryl}kanamycin A (i.e., amikacin) and 1-N-{(S)-4-amino-2-hydroxybutyryl}-3,4-dideoxykanamycin B (i.e., habekacin) were also measured in the same manner.

Mycobacterium 607 = settings: Mycobacterium, 607, pH 7
Experimental: as §1

[1] = test system: Pseudomonas aeruginosa A3
Experimental: as §1

[2] = test system: Klebsiella pneumoniae 22 #3038
Experimental: as §1

Escherichia coli K-12 = settings: K12, pH 7
Experimental: as §1

[3] = test system: Escherichia coli K-12 LA 290 R55; settings: K12LA290R55, pH 7
Experimental: as §1

[4] = test system: Pseudomonas aeruginosa GN 315; settings: GN315, pH 7
Experimental: as §1

[5] = test system: Staphylococcus aureus 209P
Experimental: as §1

Serratia marcescens = test system: Serratia marcescens
Experimental: as §1

Proteus rettgeri GN 311 = settings: Providencia rettgeri, GN311, pH 7
Experimental: as §1

[6] = test system: Staphylococcus aureus Ap01
Experimental: as §1

[7] = test system: Corynebacterium bovis 1810; settings: Corynebacterium bovis, 1810, pH 7
Experimental: as §1

Bacillus subtilis PCI219 = test system: Bacillus subtilis PCI219
Experimental: as §1

Providencia sp. Pv 16 = test system: Providencia sp. Pv 16
Experimental: as §1

[8] = test system: Escherichia coli K-12 ML 1629
Experimental: as §1

Escherichia coli K-12 R5 = settings: K12R5, pH 7
Experimental: as §1
Infectious diseases by Escherichia coli K-12 R5 tend to increase in recent days. The compounds of this invention are therefore important for the therapeutic treatment of bacterial infections.

[9] = test system: Pseudomonas aeruginosa TI 13; settings: for MIC: Pseudomonas aeruginosa; for antibacterial activity (MIC) at pH 6 as compared to pH 7: pH 6 vs pH 7
Experimental: as §1
(§2) (a) The antibacterial activities of the compounds of this invention are not decreased practically even under pH conditions of pH […] as compared to their antibacterial activities under neutral conditions of pH 7.

[10] = test system: Escherichia coli JR66/W677; settings: for MIC: Escherichia coli; for antibacterial activity (MIC) at pH 6 as compared to pH 7: pH 6 vs pH 7
Experimental: as §1, §2

[11] = TI13, measured at pH 6, read-out: MIC
[12] = JR66/W677, measured at pH 6, read-out: MIC

| SMILES | MIC (Escherichia coli JR 225) | MIC (Escherichia coli K-12) | MIC [3] | MIC [4] | MIC (Serratia marcescens; pH 7, read-out: MIC) | MIC (Escherichia coli K-12 R5) | MIC [9, 11] | MIC [10, 12] | MIC (Mycobacterium 607; read-out: MIC) | MIC ([1]; A3, pH 7, read-out: MIC) | MIC ([5]; pH 7, read-out: MIC) | MIC (Proteus rettgeri GN 311; read-out: MIC) | MIC ([6]; AP01, pH 7, read-out: MIC) | MIC ([7]; read-out: MIC) | MIC (Bacillus subtilis PCI219; PCI219, pH 7, read-out: MIC) | MIC ([8]; K12ML1629, pH 7, read-out: MIC) | MIC ([9]; TI13, pH 7, read-out: MIC) | MIC ([10]; JR66/W677, pH 7, read-out: MIC) | MIC ([2]; pH 7, read-out: MIC) | MIC (Providencia sp. Pv 16; SP.PV16, pH 7, read-out: MIC) | other results |
| --- | --- | --- | --- | --- | --- | --- | --- | --- | --- | --- | --- | --- | --- | --- | --- | --- | --- | --- | --- | --- | --- |
| NCC[C@H](O)C(=O)N[C@@H]1C[C@H](N)[C@@H](O[C@H]2O[C@H](CN)[C@@H](O)[C@H](O)[C@H]2O)[C@H](O)[C@H]1O[C@H]1O[C@H](CO)[C@@H](O)[C@H](N)[C@H]1O [Amikacin, 1-N-{(S)-4-amino-2-hydroxybutyryl}kanamycin A, reference compound] | 0.78 mg/L (≈ 1.33 µM) | 0.78 mg/L (≈ 1.33 µM) | 1.56 mg/L (≈ 2.66 µM) | 25 mg/L (≈ 42.7 µM) | 6.25 mg/L (≈ 10.7 µM) | 25 mg/L (≈ 42.7 µM) | 12.5 mg/L (≈ 21.3 µM) | 25 mg/L (≈ 42.7 µM) | – | – | – | – | – | – | – | – | – | – | – | – | MIC (Mycobacterium 607): 1.56 mg/L (≈ 2.66 µM); MIC ([1]; A3, pH 7): 1.56 mg/L (≈ 2.66 µM); MIC ([2]; pH 7): 3.12 mg/L (≈ 5.33 µM); MIC ([5]; pH 7): 1.56 mg/L (≈ 2.66 µM); MIC (Proteus rettgeri GN 311): 1.56 mg/L (≈ 2.66 µM); MIC ([6]; AP01, pH 7): 3.12 mg/L (≈ 5.33 µM); MIC [7]: 1.56 mg/L (≈ 2.66 µM); MIC (Bacillus subtilis PCI219; PCI219, pH 7): 1.56 mg/L (≈ 2.66 µM); MIC (Providencia sp. Pv 16; SP.PV16, pH 7): 1.56 mg/L (≈ 2.66 µM); MIC ([8]; K12ML1629, pH 7): 1.56 mg/L (≈ 2.66 µM); MIC ([9]; TI13, pH 7): 3.12 mg/L (≈ 5.33 µM); antibacterial activity (MIC) at pH 6 as compared to pH 7 [9]: reduced considerably at pH 6; MIC ([10]; JR66/W677, pH 7): 3.12 mg/L (≈ 5.33 µM); antibacterial activity (MIC) at pH 6 as compared to pH 7 [10]: reduced considerably at pH 6 |
| NCC[C@H](O)C(=O)N[C@@H]1C[C@H](N)[C@@H](O[C@H]2O[C@H](CN)CC[C@H]2N)[C@H](O)[C@H]1O[C@H]1O[C@H](CO)[C@@H](O)[C@H](N)[C@H]1O [Habekacin, 1-N-{(S)-4-amino-2-hydroxybutyryl}-3,4-dideoxykanamycin B, reference compound] | 0.78 mg/L (≈ 1.41 µM) | 0.39 mg/L (≈ 0.706 µM) | 0.78 mg/L (≈ 1.41 µM) | 3.12 mg/L (≈ 5.65 µM) | – | 25 mg/L (≈ 45.2 µM) | 25 mg/L (≈ 45.2 µM) | – | 0.39 mg/L (≈ 0.706 µM) | < 0.2 mg/L | < 0.2 mg/L | 0.78 mg/L (≈ 1.41 µM) | 0.39 mg/L (≈ 0.706 µM) | 0.39 mg/L (≈ 0.706 µM) | < 0.2 mg/L | 0.78 mg/L (≈ 1.41 µM) | 0.78 mg/L (≈ 1.41 µM) | 0.78 mg/L (≈ 1.41 µM) | – | – | MIC ([2]; pH 7): 1.56 mg/L (≈ 2.82 µM); MIC (Serratia marcescens; pH 7): 12.5 mg/L (≈ 22.6 µM); MIC (Providencia sp. Pv 16; SP.PV16, pH 7): 1.56 mg/L (≈ 2.82 µM); antibacterial activity (MIC) at pH 6 as compared to pH 7 [9]: reduced considerably at pH 6; MIC ([10]; JR66/W677, pH 6): 6.25 mg/L (≈ 11.3 µM); antibacterial activity (MIC) at pH 6 as compared to pH 7 [10]: reduced considerably at pH 6 |
| NC[C@@H](F)[C@H](O)C(=O)N[C@@H]1C[C@H](N)[C@@H](O[C@H]2O[C@H](CN)[C@@H](O)[C@H](O)[C@H]2O)[C@H](O)[C@H]1O[C@H]1O[C@H](CO)[C@@H](O)[C@H](N)[C@H]1O [Invention Compound No. 1, 1-N-{(2R,3R)-4-Amino-3-fluoro-2-hydroxybutyryl}-kanamycin A] | 0.78 mg/L (≈ 1.29 µM) | 0.39 mg/L (≈ 0.646 µM) | 1.56 mg/L (≈ 2.58 µM) | 25 mg/L (≈ 41.4 µM) | 3.12 mg/L (≈ 5.17 µM) | 12.5 mg/L (≈ 20.7 µM) | 3.12 mg/L (≈ 5.17 µM) | 6.25 mg/L (≈ 10.4 µM) | 1.56 mg/L (≈ 2.58 µM) | 0.78 mg/L (≈ 1.29 µM) | 1.56 mg/L (≈ 2.58 µM) | 0.39 mg/L (≈ 0.646 µM) | 6.25 mg/L (≈ 10.4 µM) | 0.78 mg/L (≈ 1.29 µM) | 0.78 mg/L (≈ 1.29 µM) | 1.56 mg/L (≈ 2.58 µM) | 3.12 mg/L (≈ 5.17 µM) | 1.56 mg/L (≈ 2.58 µM) | 3.12 mg/L (≈ 5.17 µM) | 1.56 mg/L (≈ 2.58 µM) | – |
| NC[C@@H](F)[C@H](O)C(=O)N[C@@H]1C[C@H](N)[C@@H](O[C@H]2O[C@H](CN)[C@@H](O)C[C@H]2F)[C@H](O)[C@H]1O[C@H]1O[C@H](CO)[C@@H](O)[C@H](N)[C@H]1O [Invention Compound No. 3, 1-N-{(2R,3R)-4-Amino-3-fluoro-2-hydroxybutyryl}-2',3'-dideoxy-2'-fluorokanamycin A] | 0.39 mg/L (≈ 0.661 µM) | 0.2 mg/L (≈ 0.339 µM) | 0.78 mg/L (≈ 1.32 µM) | 12.5 mg/L (≈ 21.2 µM) | 1.56 mg/L (≈ 2.65 µM) | 6.25 mg/L (≈ 10.6 µM) | 3.12 mg/L (≈ 5.29 µM) | 1.56 mg/L (≈ 2.65 µM) | 0.78 mg/L (≈ 1.32 µM) | 0.78 mg/L (≈ 1.32 µM) | 0.78 mg/L (≈ 1.32 µM) | 0.78 mg/L (≈ 1.32 µM) | 1.56 mg/L (≈ 2.65 µM) | 0.78 mg/L (≈ 1.32 µM) | 0.39 mg/L (≈ 0.661 µM) | 0.39 mg/L (≈ 0.661 µM) | 3.12 mg/L (≈ 5.29 µM) | 0.78 mg/L (≈ 1.32 µM) | 0.78 mg/L (≈ 1.32 µM) | 0.78 mg/L (≈ 1.32 µM) | – |
| NC[C@@H](F)[C@H](O)C(=O)N[C@@H]1C[C@H](N)[C@@H](O[C@H]2O[C@H](CN)[C@@H](O)[C@H](O)[C@H]2O)[C@H](F)[C@H]1O[C@H]1O[C@H](CO)[C@@H](O)[C@H](N)[C@H]1O [Invention Compound No. 4, 1-N-{(2R,3R)-4-Amino-3-fluoro-2-hydroxybutyryl}-5-deoxy-5-fluorokanamycin A] | 0.39 mg/L (≈ 0.644 µM) | 0.78 mg/L (≈ 1.29 µM) | 0.78 mg/L (≈ 1.29 µM) | 25 mg/L (≈ 41.3 µM) | 6.25 mg/L (≈ 10.3 µM) | 6.25 mg/L (≈ 10.3 µM) | 3.12 mg/L (≈ 5.15 µM) | 3.12 mg/L (≈ 5.15 µM) | 3.12 mg/L (≈ 5.15 µM) | 1.56 mg/L (≈ 2.58 µM) | 1.56 mg/L (≈ 2.58 µM) | 1.56 mg/L (≈ 2.58 µM) | 6.25 mg/L (≈ 10.3 µM) | 0.39 mg/L (≈ 0.644 µM) | 3.12 mg/L (≈ 5.15 µM) | 0.39 mg/L (≈ 0.644 µM) | 3.12 mg/L (≈ 5.15 µM) | 1.56 mg/L (≈ 2.58 µM) | 3.12 mg/L (≈ 5.15 µM) | 1.56 mg/L (≈ 2.58 µM) | – |
| NC[C@@H](F)[C@H](O)C(=O)N[C@@H]1C[C@H](N)[C@@H](O[C@H]2O[C@H](CN)[C@@H](O)[C@H](O)[C@H]2N)[C@H](O)[C@H]1O[C@H]1O[C@H](CO)[C@@H](O)[C@H](N)[C@H]1O [Invention Compound No. 5, 1-N-{(2R,3R)-4-Amino-3-fluoro-2-hydroxybutyryl}-kanamycin B] | 0.39 mg/L (≈ 0.647 µM) | 0.2 mg/L (≈ 0.332 µM) | 0.78 mg/L (≈ 1.29 µM) | 6.25 mg/L (≈ 10.4 µM) | 6.25 mg/L (≈ 10.4 µM) | 3.12 mg/L (≈ 5.18 µM) | 3.12 mg/L (≈ 5.18 µM) | 3.12 mg/L (≈ 5.18 µM) | 12.5 mg/L (≈ 20.7 µM) | 0.78 mg/L (≈ 1.29 µM) | 0.78 mg/L (≈ 1.29 µM) | 0.39 mg/L (≈ 0.647 µM) | 6.25 mg/L (≈ 10.4 µM) | 0.39 mg/L (≈ 0.647 µM) | 1.56 mg/L (≈ 2.59 µM) | 0.78 mg/L (≈ 1.29 µM) | 1.56 mg/L (≈ 2.59 µM) | 0.78 mg/L (≈ 1.29 µM) | 3.12 mg/L (≈ 5.18 µM) | 1.56 mg/L (≈ 2.59 µM) | – |
